The results in this text go back to PubChem BioAssay AID256 (DTP/NCI, 2004).

In the assay the test system is CD2F1 mice, L1210 leukemia ip, survival T/C. The assay can be described thus: NCI In Vivo Anticancer Drug Screen. Data for tumor model L1210 Leukemia (intraperitoneal) in CD2F1 (CDF1) mice. The settings on record: higher = longer survival. The essentials:
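Ratio T/C, where T is the treated-group value and C the vehicle-dosed control value, from mice implanted with a transplantable tumor.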

Where [1] appears, read: endpoint: mean survival time, dose: 100.0 mg/kg/injection, schedule: Q01DX001 (ip), vehicle: saline with Tween-80.
The mark [2] stands for this setting: endpoint: mean survival time, dose: 200.0 mg/kg/injection, schedule: Q01DX001 (ip), vehicle: saline with Tween-80.
Setting [3] is: endpoint: mean survival time, dose: 400.0 mg/kg/injection, schedule: Q01DX001 (ip), vehicle: saline with Tween-80.
[4] abbreviates: endpoint: mean survival time, dose: 12.5 mg/kg/injection, schedule: Q01DX001 (ip), vehicle: saline with Tween-80.
Setting [5] is: endpoint: mean survival time, dose: 50.0 mg/kg/injection, schedule: Q01DX001 (ip), vehicle: saline with Tween-80.
Where [6] appears, read: endpoint: mean survival time, dose: 100.0 mg/kg/injection, schedule: Q04DX003 (ip), vehicle: saline with Tween-80.
Setting [7] is: endpoint: mean survival time, dose: 200.0 mg/kg/injection, schedule: Q04DX003 (ip), vehicle: saline with Tween-80.
Where [8] appears, read: endpoint: mean survival time, dose: 400.0 mg/kg/injection, schedule: Q04DX003 (ip), vehicle: saline with Tween-80.
Setting [9] is: endpoint: mean survival time, dose: 100.0 mg/kg/injection, schedule: Q01DX001 (ip), vehicle: saline.
[10] abbreviates: endpoint: mean survival time, dose: 100.0 mg/kg/injection, schedule: Q01DX009 (ip), vehicle: saline with Tween-80.
Setting [11] is: endpoint: mean survival time, dose: 200.0 mg/kg/injection, schedule: Q01DX009 (ip), vehicle: saline with Tween-80.
[12] abbreviates: endpoint: mean survival time, dose: 400.0 mg/kg/injection, schedule: Q01DX009 (ip), vehicle: saline with Tween-80.

Each structure is given as a SMILES string. Several values for one entry are separate records, joined by “and”; a condition that tells them apart may be missing. Equal entries are not always repeated. Toxic doses and inconclusive results are not listed. Residues, ends and D or L forms follow the SMILES beside them. *: point of attachment. Cbz = O=C(OCc1ccccc1)*; Bn = c1ccc(C*)cc1; βAla = NCCC(=O)O

As to `COc1ccc(-n2cnc3c(cnn3C3OC(CO)C(O)C3O)c2=O)cc1` (centres undefined), the T/C by setting is: (endpoint: median survival time, dose: 12.5 mg/kg/injection, schedule: Q01DX005 (ip), vehicle: saline) 105 % of control; (endpoint: median survival time, dose: 25.0 mg/kg/injection, schedule: Q01DX005 (ip), vehicle: saline) 102 % of control; (endpoint: median survival time, dose: 50.0 mg/kg/injection, schedule: Q01DX005 (ip), vehicle: saline) 102 % of control; (endpoint: median survival time, dose: 100.0 mg/kg/injection, schedule: Q01DX005 (ip), vehicle: saline) 105 % of control; (endpoint: median survival time, dose: 200.0 mg/kg/injection, schedule: Q01DX005 (ip), vehicle: saline) 106 % of control.

As for `Cc1ccc(NCCN2CCCCC2)c2c(=O)c3ccccc3sc12`, the T/C was 93 % of control (endpoint: mean survival time, dose: 100.0 mg/kg/injection, schedule: Q04DX003 (ip), vehicle: Klucel (hydroxypropylcellulose) (HPC)); 103 % of control (endpoint: mean survival time, dose: 200.0 mg/kg/injection, schedule: Q04DX003 (ip), vehicle: Klucel (hydroxypropylcellulose) (HPC)); 109 % of control (endpoint: mean survival time, dose: 400.0 mg/kg/injection, schedule: Q04DX003 (ip), vehicle: Klucel (hydroxypropylcellulose) (HPC)).

Take `CC1CC1C(N)=O` (centres undefined): the T/C (endpoint: mean survival time, dose: 50.0 mg/kg/injection, schedule: Q04DX002 (ip), vehicle: saline) is 103 % of control; the T/C (endpoint: mean survival time, dose: 100.0 mg/kg/injection, schedule: Q04DX002 (ip), vehicle: saline) was 98 % of control and 102 % of control; the T/C (endpoint: mean survival time, dose: 200.0 mg/kg/injection, schedule: Q04DX002 (ip), vehicle: saline) is 98 % of control and 103 % of control; the T/C (endpoint: mean survival time, dose: 400.0 mg/kg/injection, schedule: Q04DX002 (ip), vehicle: saline) was 101 % of control and 104 % of control; the T/C (endpoint: mean survival time, dose: 600.0 mg/kg/injection, schedule: Q04DX002 (ip), vehicle: saline) was 98 % of control; the T/C (endpoint: mean survival time, dose: 800.0 mg/kg/injection, schedule: Q04DX002 (ip), vehicle: saline) is 100 % of control.

Turning to `CCOC(=O)N1Cc2cc3ccc(OC)cc3nc2C1`, the T/C under setting [1] was 98 % of control, the T/C under setting [2] was 101 % of control and the T/C under setting [3] was 103 % of control.

In the case of `FCCc1ccccc1`, the T/C (endpoint: mean survival time, dose: 50.0 mg/kg/injection, schedule: Q04DX003 (ip), vehicle: saline sonified) was 98 % of control; the T/C under setting [1] is 97 % of control and 94 % of control; the T/C (endpoint: mean survival time, dose: 100.0 mg/kg/injection, schedule: Q04DX003 (ip), vehicle: saline sonified) was 98 % of control; the T/C under setting [2] was 95 % of control; the T/C (endpoint: mean survival time, dose: 200.0 mg/kg/injection, schedule: Q04DX003 (ip), vehicle: saline sonified) is 98 % of control; the T/C under setting [3] was 103 % of control and 94 % of control.

With `O=NN(CCCl)C(=O)NC1CCN(Cc2ccccc2)CC1`, the T/C runs as follows: under setting [4], 123 % of control; under setting [5], 271 % of control; under setting [1], 379 % of control.

In the case of `CNC(=O)SCc1ccc(Cl)cc1`, the T/C is 98 % of control under setting [6], 96 % of control under setting [7] and 102 % of control under setting [8].

Turning to `CCCN1CCc2cc3c(cc2C1)OCO3`, under setting [9], the T/C was 100 % of control.

On to `Cc1cc(C)[nH]n1`, for which the T/C is, setting by setting: under setting [6], 95 % of control; under setting [7], 93 % of control; under setting [8], 97 % of control.

Turning to `Nc1nc(N)c(-c2ccc(Cl)c(Cl)c2)c(CCc2ccc(NC(=O)Nc3ccc(S(=O)(=O)F)cc3)cc2)n1`, the T/C under setting [5] was 91 % of control, the T/C under setting [1] is 91 % of control and the T/C under setting [2] is 94 % of control.

For the compound `COC(=O)C(CSCc1ccccc1)NC(=O)C(CSCc1ccccc1)NC(=O)CCNC(=O)OCc1ccccc1` (centres undefined) ({Cbz-βAla}-Cys(Bn)-Cys(Bn)-OMe; configuration not given here), the T/C (endpoint: mean survival time, dose: 25.0 mg/kg/injection, schedule: Q01DX005 (ip), vehicle: water) was 103 % of control; the T/C (endpoint: mean survival time, dose: 50.0 mg/kg/injection, schedule: Q01DX005 (ip), vehicle: water) was 98 % of control; the T/C (endpoint: mean survival time, dose: 100.0 mg/kg/injection, schedule: Q01DX005 (ip), vehicle: water) is 106 % of control; the T/C (endpoint: mean survival time, dose: 200.0 mg/kg/injection, schedule: Q01DX005 (ip), vehicle: water) was 103 % of control; the T/C (endpoint: mean survival time, dose: 400.0 mg/kg/injection, schedule: Q01DX005 (ip), vehicle: water) is 105 % of control.

Consider `CN(C)c1ccc(N=Nc2ccc([As](=O)(O)O)cc2)cc1`, for which the T/C reads like this: (endpoint: mean survival time, dose: 6.25 mg/kg/injection, schedule: Q01DX009 (ip), vehicle: saline with Tween-80) 91 % of control; under setting [4], 110 % of control; (endpoint: mean survival time, dose: 12.5 mg/kg/injection, schedule: Q01DX009 (ip), vehicle: saline with Tween-80) 89 % of control.

As for `CCOC(=O)CC(=O)c1ccccc1SC`, the T/C under setting [10] was 98 % of control, the T/C under setting [11] is 96 % of control and the T/C under setting [12] was 96 % of control.

`O=C(CCN1CCCCC1)c1ccccc1`: the T/C runs as follows: (endpoint: mean survival time, dose: 5.0 mg/kg/injection, schedule: Q01DX009 (ip), vehicle: saline) 115 % of control; (endpoint: mean survival time, dose: 10.0 mg/kg/injection, schedule: Q01DX009 (ip), vehicle: saline) 114 % of control; (endpoint: mean survival time, dose: 20.0 mg/kg/injection, schedule: Q01DX009 (ip), vehicle: saline) 102 % of control.

For the compound `COc1ccc(-c2cnc(C(N)=O)c(=O)[nH]2)cc1`, the T/C by setting is: under setting [10], 100 % of control; under setting [11], 96 % of control; under setting [12], 101 % of control.

For the compound `COc1cc(N2C(N)=NC(N)=NC2(C)C)cc(OC)c1OC`, the T/C is 97 % of control (endpoint: mean survival time, dose: 6.25 mg/kg/injection, schedule: Q04DX003 (ip), vehicle: saline); 102 % of control (endpoint: mean survival time, dose: 12.5 mg/kg/injection, schedule: Q04DX003 (ip), vehicle: saline); 102 % of control (endpoint: mean survival time, dose: 25.0 mg/kg/injection, schedule: Q04DX003 (ip), vehicle: saline).

For the compound `COc1cc2ccc(/C(C)=N/OC(C)=O)cc2cc1OC`, the T/C runs as follows: under setting [10], 100 % of control; under setting [11], 102 % of control; under setting [12], 97 % of control.

In the case of `CC(=O)Nc1sc([N+](=O)[O-])cc1[N+](=O)[O-]`, the T/C reads like this: (endpoint: mean survival time, dose: 25.0 mg/kg/injection, schedule: Q04DX003 (ip), vehicle: saline with Tween-80) 101 % of control; (endpoint: mean survival time, dose: 50.0 mg/kg/injection, schedule: Q04DX003 (ip), vehicle: saline with Tween-80) 108 % of control; under setting [6], 91 % of control and 101 % of control.

For `CCOC(=O)C(=Cc1ccc(C=C(C(=O)OCC)C(=O)OCC)cc1)C(=O)OCC`, the T/C is 95 % of control (endpoint: mean survival time, dose: 50.0 mg/kg/injection, schedule: Q01DX009 (ip), vehicle: Klucel (hydroxypropylcellulose) (HPC)); 95 % of control (endpoint: mean survival time, dose: 100.0 mg/kg/injection, schedule: Q01DX009 (ip), vehicle: Klucel (hydroxypropylcellulose) (HPC)); 89 % of control (endpoint: mean survival time, dose: 200.0 mg/kg/injection, schedule: Q01DX009 (ip), vehicle: Klucel (hydroxypropylcellulose) (HPC)).

As to `OC1(c2ccccc2)C(N2CCOCC2)=C(c2ccccc2)c2ccccc21` (centres undefined), the T/C under setting [6] was 105 % of control, the T/C under setting [7] is 100 % of control and the T/C under setting [8] is 95 % of control.

Take `COC(=O)C1CC2C(CCC3C(C)(C(=O)OC)CCCC23C)C(=O)C1(O)C(C)C` (centres undefined): the T/C is 101 % of control under setting [6], 105 % of control under setting [7] and 91 % of control under setting [8].

In the case of `C1CCC(CCCC(CCCC2CCCCC2)CCCC2CCCCC2)CC1`, the T/C reads like this: under setting [1], 94 % of control; under setting [2], 91 % of control; under setting [3], 88 % of control.

Turning to `CC1=NNC(=O)C1CCO` (centres undefined), the T/C is, setting by setting: (endpoint: median survival time, dose: 25.0 mg/kg/injection, schedule: Q01DX009 (ip), vehicle: Klucel (hydroxypropylcellulose) (HPC)) 103 % of control; (endpoint: median survival time, dose: 50.0 mg/kg/injection, schedule: Q01DX009 (ip), vehicle: Klucel (hydroxypropylcellulose) (HPC)) 100 % of control; (endpoint: median survival time, dose: 100.0 mg/kg/injection, schedule: Q01DX009 (ip), vehicle: Klucel (hydroxypropylcellulose) (HPC)) 98 % of control; (endpoint: median survival time, dose: 200.0 mg/kg/injection, schedule: Q01DX009 (ip), vehicle: Klucel (hydroxypropylcellulose) (HPC)) 102 % of control; (endpoint: median survival time, dose: 400.0 mg/kg/injection, schedule: Q01DX009 (ip), vehicle: Klucel (hydroxypropylcellulose) (HPC)) 103 % of control; (endpoint: median survival time, dose: 800.0 mg/kg/injection, schedule: Q01DX009 (ip), vehicle: Klucel (hydroxypropylcellulose) (HPC)) 104 % of control.

As for `COC1OC(COC(=O)c2ccc([N+](=O)[O-])cc2)C(SC#N)C1OC(=O)c1ccc([N+](=O)[O-])cc1` (centres undefined), the T/C (endpoint: mean survival time, dose: 50.0 mg/kg/injection, schedule: Q01DX001 (ip), vehicle: saline) is 101 % of control; the T/C under setting [9] was 101 % of control; the T/C (endpoint: mean survival time, dose: 200.0 mg/kg/injection, schedule: Q01DX001 (ip), vehicle: saline) was 91 % of control; the T/C (endpoint: mean survival time, dose: 400.0 mg/kg/injection, schedule: Q01DX001 (ip), vehicle: saline) is 101 % of control.
